Measurements reported in the supplement of paper PMC6045584.
± gives the standard deviation of the averaged measurements.

Experiments:
SOTRASTAURIN/AEB071 = compound: CN1CCN(c2nc(C3=C(c4c[nH]c5ccccc45)C(=O)NC3=O)c3ccccc3n2)CC1 [SOTRASTAURIN/AEB071]; assay: surviving fraction relative to DMSO-only wells; higher = less growth inhibition; settings: exposure time: 5 days
Outline: (§1)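 Viability values are CellTiter-Glo luminescence readings, given as surviving fraction against the median of DMSO-only wells. The readings were taken after 10 minutes at room temperature, following five days of continuous exposure to inhibitors at 0.5, 1, 5, 10, 50, 100, 500 and 1000 nM that began 24 hours after log-phase tumour cell lines were seeded at 250–500 cells per well in 384-well plates. Every line was screened three times and kept only if replicate Pearson r >0.7 and median Z' >0.3.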

ABIRATERONE = compound: C[C@]12CC[C@H](O)CC1=CC[C@@H]1[C@@H]2CC[C@]2(C)C(c3cccnc3)=CC[C@@H]12 [ABIRATERONE]; assay: as above; settings: exposure time: 5 days
Outline: as §1

| Test System | surviving fraction (SOTRASTAURIN/AEB071; 0.5 nM) | surviving fraction (SOTRASTAURIN/AEB071; 1 nM) | surviving fraction (SOTRASTAURIN/AEB071; 5 nM) | surviving fraction (SOTRASTAURIN/AEB071; 10 nM) | surviving fraction (SOTRASTAURIN/AEB071; 50 nM) | surviving fraction (SOTRASTAURIN/AEB071; 100 nM) | surviving fraction (SOTRASTAURIN/AEB071; 500 nM) | surviving fraction (SOTRASTAURIN/AEB071; 1000 nM) | surviving fraction (ABIRATERONE; 0.5 nM) | surviving fraction (ABIRATERONE; 1 nM) | surviving fraction (ABIRATERONE; 5 nM) | surviving fraction (ABIRATERONE; 10 nM) | surviving fraction (ABIRATERONE; 50 nM) | surviving fraction (ABIRATERONE; 100 nM) | surviving fraction (ABIRATERONE; 500 nM) | surviving fraction (ABIRATERONE; 1000 nM) |
| --- | --- | --- | --- | --- | --- | --- | --- | --- | --- | --- | --- | --- | --- | --- | --- | --- |
| SCC47 HEADNECK | 1.04 ± 0.046 | 1.12 ± 0.12 | 1.16 ± 0.062 | 1.13 ± 0.14 | 1.06 ± 0.07 | 1.08 ± 0.046 | 1 ± 0.031 | 1.05 ± 0.13 | 1.18 ± 0.061 | 1.11 ± 0.027 | 1.17 ± 0.061 | 1.19 ± 0.1 | 1.22 ± 0.13 | 1.36 ± 0.098 | 1.25 ± 0.093 | 1.17 ± 0.077 |
| CAL72 BONE | 1.1 ± 0.021 | 1.09 ± 0.029 | 1.05 ± 0.029 | 1.08 ± 0.014 | 1.05 ± 0.04 | 1.08 ± 0.072 | 1.06 ± 0.044 | 1.1 ± 0.015 | 1.087 ± 0.0031 | 1.1 ± 0.023 | 1.09 ± 0.056 | 1.09 ± 0.043 | 1.16 ± 0.012 | 1.15 ± 0.019 | 1.13 ± 0.048 | 1.07 ± 0.027 |
| 93VU HEADNECK | 1.03 ± 0.011 | 1.01 ± 0.036 | 1.07 ± 0.1 | 0.9817 ± 0.005 | 0.919 ± 0.067 | 0.887 ± 0.039 | 0.757 ± 0.055 | 0.789 ± 0.048 | 1.2 ± 0.027 | 1.15 ± 0.12 | 1.12 ± 0.031 | 1.2 ± 0.024 | 1.32 ± 0.038 | 1.19 ± 0.056 | 1.17 ± 0.12 | 1.11 ± 0.12 |
| HCC78 LUNG | 1.08 ± 0.35 | 0.934 ± 0.14 | 0.96 ± 0.073 | 1 ± 0.12 | 1.16 ± 0.18 | 1.48 ± 0.17 | 1.11 ± 0.059 | 1.05 ± 0.058 | 0.94 ± 0.12 | 0.911 ± 0.058 | 1.09 ± 0.15 | 1.06 ± 0.23 | 1.12 ± 0.16 | 1.15 ± 0.25 | 0.936 ± 0.063 | 0.823 ± 0.24 |
| SUM159 BREAST | 1.1 ± 0.02 | 1.12 ± 0.028 | 1.11 ± 0.016 | 1.08 ± 0.026 | 1.06 ± 0.021 | 1.09 ± 0.015 | 1.07 ± 0.028 | 1.04 ± 0.021 | 1.11 ± 0.053 | 0.994 ± 0.16 | 0.99 ± 0.17 | 0.952 ± 0.21 | 1.11 ± 0.05 | 0.963 ± 0.24 | 1.03 ± 0.15 | 0.961 ± 0.2 |
| U2OS BONE | 1.04 ± 0.058 | 1.008 ± 0.0065 | 1.11 ± 0.037 | 1.044 ± 0.0091 | 1.03 ± 0.051 | 1.02 ± 0.045 | 0.939 ± 0.027 | 0.929 ± 0.029 | 1.04 ± 0.05 | 1.03 ± 0.029 | 1.1 ± 0.035 | 1.096 ± 0.004 | 1.19 ± 0.031 | 1.08 ± 0.022 | 1.1 ± 0.016 | 1.09 ± 0.032 |
| MDAMB231 BREAST | 0.955 ± 0.013 | 0.974 ± 0.037 | 1.01 ± 0.022 | 0.984 ± 0.031 | 1 ± 0.046 | 1.02 ± 0.0072 | 1.08 ± 0.033 | 1.05 ± 0.024 | 0.991 ± 0.011 | 0.998 ± 0.048 | 1.02 ± 0.023 | 0.992 ± 0.031 | 1.02 ± 0.013 | 1.03 ± 0.024 | 1.02 ± 0.014 | 0.942 ± 0.027 |
| CME SYNOVIAL | 1.28 ± 0.26 | 1.3 ± 0.18 | 1.31 ± 0.13 | 1.38 ± 0.22 | 0.978 ± 0.13 | 1.21 ± 0.2 | 1.14 ± 0.059 | 1.12 ± 0.059 | 1.28 ± 0.1 | 1.38 ± 0.15 | 1.43 ± 0.15 | 1.29 ± 0.086 | 1.37 ± 0.17 | 1.37 ± 0.029 | 1.34 ± 0.18 | 1.2 ± 0.18 |
| T47D BREAST | 1.03 ± 0.05 | 1.042 ± 0.0044 | 0.988 ± 0.034 | 1.03 ± 0.038 | 1.03 ± 0.05 | 1.05 ± 0.014 | 1.1 ± 0.028 | 1.09 ± 0.022 | 1.04 ± 0.048 | 1.08 ± 0.031 | 1.05 ± 0.018 | 1.08 ± 0.063 | 1.18 ± 0.068 | 1.14 ± 0.022 | 1.1 ± 0.069 | 1.13 ± 0.051 |
| MDAMB436 BREAST | 0.976 ± 0.12 | 0.96 ± 0.057 | 0.932 ± 0.14 | 0.992 ± 0.13 | 0.943 ± 0.043 | 0.816 ± 0.052 | 0.955 ± 0.073 | 0.952 ± 0.056 | 0.954 ± 0.13 | 0.934 ± 0.063 | 0.915 ± 0.083 | 0.93 ± 0.061 | 1.02 ± 0.049 | 0.895 ± 0.052 | 0.953 ± 0.035 | 0.894 ± 0.037 |
